For 1 molecule, AUC_0-6 h results are on record in patent publication US20260130881A1, “SUSTAINED RELEASE DEVICE CONTENTS FOR TREATMENT OF PARKINSON'S DISEASE AND OTHER DISORDERS” (priority 2024, published 2026).

The conditions of this data set: human, in vivo.

Molecule `N[C@@H](Cc1ccc(O)c(O)c1)C(=O)O` [levodopa] yielded an AUC_0-6 h of 1423.0 ± 919.5 ng·h/mL.
